Measured values: patent publication US11834413B2, “Antiplatelet drugs and uses thereof” (SHANGHAI CUREGENE PHARMACEUTICAL CO., LTD., priority 2020, dated 2023)

How the values were obtained:
[1] = after absorption; cited from earlier work
[2] = after a loading dose (600 mg); cited from earlier work
platelet aggregation = assay: Antiaggregatory action in rats: ex vivo ADP-induced platelet aggregation in PRP, turbidimetric aggregometry; set-up: species or system Male Sprague-Dawley rats; conditions: rat, oral
Procedure: Assay 2: Antiaggregatory Action in Rats
Male Sprague-Dawley rats were used for ex vivo platelet aggregation experiments. After oral administrated with (clopidogrel, exemplary compounds provided herein and vehicle (control)) to rats, blood was collected via jugular vein at 0.5 hour, 1 hour and 2 hour time points, using 3.8% (w/v) sodium citrate solution as an anticoagulant ( 1/9 volume of whole blood). Blood samples with citrate were centrifuged at a low speed of 1000 rmp for 5 min to obtain platelet-rich plasma (PRP). After separation of PRP, the remained blood was further centrifuged at a high speed of 3000 rmp for 10 min to obtain platelet-poor plasma (PPP). The number of platelets in PRP was measured by hematology analyzer (Siemens, ADVIA2120), and adjusted to 4×10^8/mL with PPP.
Platelet aggregation was determined using turbidimetric aggregometry method by an automatic platelet aggregometer (PRECIL LBY-NJ4). The aggregometer was primarily warmed up to 37° C., and PRP (290 μL) sample was added to the cuvette and set in the automatic platelet aggregometer. After a 5 min pre-incubation, calibrated the aggregometer using PPP to representing 100% aggregation and PRP to representing 0% aggregation. Finally, a volume of […] ADP solution (final concentration 10 μM) was added to PRP sample to initial platelet aggregation. Platelet aggregation was monitored for 5 min and maximum platelet aggregation (%) was reported within the duration. Antiaggregatory action of test compounds was expressed as inhibition (%) which determined by the relation: Inhibition (%)=(maximum platelet aggregation (%) of control−maximum platelet aggregation (%) of test compound)/(maximum platelet aggregation (%) of control)*100

[3] = Pharmacokinetic in rats: concentration of the thiol active metabolite in plasma; assay type: in vivo, Male Sprague-Dawley rats; conditions: for peak concentration of the thiol active metabolite compared with clopidogrel: rat plasma; for release of the active metabolite compared with clopidogrel: rat
Procedure: Assay 1: Pharmacokinetic in Rats
Male Sprague-Dawley rats were used to conduct pharmacokinetic experiment.
Test compounds (clopidogrel and exemplary compounds provided herein) was administrated orally or intravenously to rat under fast condition. Blood samples were collected via jugular vein at 5 min, 15 min, 30 min, 60 min and 120 min time points with EDTA-K2 (anticoagulant), 3′-methoxyphenacyl bromide (MPBr, derivatization reagent) and phenylmethylsulfonyl fluoride (PMSF, stabilizer). Plasma samples were then harvested by centrifuging at 1500 g for 10 min under 2-8° C. and stored at −80° C. after separation. Plasma samples were loaded to a LC-MS/MS instrument after extraction to determine the concentration of the thiol active metabolite.

Compound: COC(=O)[C@H](c1ccccc1Cl)N1CCc2sccc2C1 [clopidogrel, Clopidogrel]
- fraction hydrolysed by esterases into an inactive carboxylic acid [1]: 85%
- fraction undergoing two-step oxidation via hepatic cytochrome P450 isoenzymes, mainly CYP2C19 [1]: 15%
- onset of action [2]: 2 h
- inhibition at 10 mg/kg (platelet aggregation; Platelet, 10 mg/kg, ADP 10 μM, read-out: maximum inhibition of platelet aggregation): ~45%
- time after administration to maximum inhibition of platelet aggregation (platelet aggregation; 10 mg/kg): about 120 minutes

Compound: COC(=O)[C@H](c1ccccc1Cl)N1CCC(SCOC(=O)OC(C)C)/C(=C/C(=O)O)C1 (stereo partly drawn) [compound 1a]
- peak concentration of the thiol active metabolite compared with clopidogrel ([3]; oral, dose level 10 mg/kg): significantly higher than that for clopidogrel
- release of the active metabolite compared with clopidogrel ([3]; oral, dose level 10 mg/kg): faster and more efficient release of the active metabolite than clopidogrel

Compound: COC(=O)[C@H](c1ccccc1Cl)N1CCC(SCOC(=O)OC(C)C)/C(=C\C(=O)O)C1 (stereo partly drawn) [compound 1b]
- peak concentration of the thiol active metabolite compared with clopidogrel ([3]; oral, dose level 10 mg/kg): significantly higher than that for clopidogrel
- release of the active metabolite compared with clopidogrel ([3]; oral, dose level 10 mg/kg): faster and more efficient release of the active metabolite than clopidogrel
- inhibition at 2 mg/kg (platelet aggregation; Platelet, 2 mg/kg, ADP 10 μM, read-out: maximum inhibition of platelet aggregation): ~45%
- time after administration to maximum inhibition of platelet aggregation (platelet aggregation; 2 mg/kg): 60 min
- onset of action and potency compared with clopidogrel (platelet aggregation; 2 mg/kg vs clopidogrel 10 mg/kg): much faster onset of action and much higher potency than clopidogrel

Compound: CCOC(=O)/C=C1\CN([C@H](C(=O)OC)c2ccccc2Cl)CCC1SCOC(=O)OC(C)C (stereo partly drawn) [compound 2a]
- peak concentration of the thiol active metabolite compared with clopidogrel ([3]; oral, dose level 10 mg/kg): significantly higher than that for clopidogrel
- release of the active metabolite compared with clopidogrel ([3]; oral, dose level 10 mg/kg): faster and more efficient release of the active metabolite than clopidogrel

Compound: COC(=O)OCSC1CCN([C@H](C(=O)OC)c2ccccc2Cl)C/C1=C/C(=O)O (stereo partly drawn) [compound 3]
- release of the active metabolite compared with clopidogrel ([3]; oral 2 mg/kg and intravenous 1 mg/kg vs clopidogrel oral 10 mg/kg): faster and more efficient release of the active metabolite than clopidogrel
